Measured values from patent US20240425480A1, “NOVEL PYRIDINE DERIVATIVE COMPOUND AS RON INHIBITOR” (LG CHEM, LTD., priority 2021, published 2024).

Tests used:
RON = RON (Homo sapiens, UniProt Q04912); test: Inhibitory activity against RON, TR-FRET kinase assay; assay type: biochemical; settings: TR-FRET enzyme assay
Method: In order to measure the inhibitory activity of each of the compounds of Examples against RON, the IC50 of each of the compounds was measured using Time-resolved fluorescence energy transfer (TR-FRET).
(§1) Specifically, the compound was prepared to a concentration of 1 mM in 100% DMSO and was diluted 10 times in a stepwise manner through 3-fold dilution. The compound (2 ul) diluted in a stepwise manner was added to a 96-well-plate containing 48 ul of a 1× kinase reaction buffer (50 mM HEPES (pH 7.4), 0.01% Tween-20, 5 mM DTT, 0.5 mM Na3VO4, 2 mM EGTA, 10 mM MgCl2).
The RON protein was diluted to a concentration of 49.3 nM in a RON storage buffer (50 mM Tris-HCl (pH 7.5), 150 mM NaCl, 0.5 mM EDTA, 0.02% Triton X-100), and then diluted again to a concentration of 0.4 nM in a 1×kinase reaction buffer. As a substrate cocktail, a RON-specific substrate mixed solution (40 uM ULight-labeled Poly GT, 100 nM ATP) was prepared at a concentration 2 times the final reaction concentration.
(§2) Thereafter, a 384-well-plate was prepared, and 2.5 μl of each of the diluted compounds of Examples was added to a corresponding well of experimental group wells, and 2.5 μl of a 4% DMSO solution was dispensed into high control wells and low control wells.
(§3) Thereafter, 2.5 μL of 0.4 nM RON was dispensed into each of the high control wells and the experimental group wells, and 2.5 μL of the 1× kinase reaction buffer was added to the low control wells, and all the wells were centrifuged at room temperature for 40 seconds at 1,000 RPM, and then incubated at room temperature for 20-30 minutes. Then, 5 μL of the substrate cocktail (2×) was dispensed into each well, and all the wells were centrifuged at room temperature for 40 seconds at 1,000 RPM, and then incubated at room temperature for 60 minutes. Thereafter, 5 μL of 30 mM EDTA was added to each well to terminate the reaction, and all the wells were then incubated again at room temperature for 5 minutes. Thereafter, 5 μL of a 4×phosphotyrosine antibody (Perkin Elmer) containing europium was added to each well, and all the wells were then incubated at room temperature for 60 minutes. After the incubation, the 384-well-plate was read with the Vison plate reader. In this case, the excitation wavelength was 340 nm, and the emission wavelength was 620 nm and 665 nm. The IC50 value of each compound of Examples was derived using the GraphPd Prism7 program.

cMET = cMET (Homo sapiens, UniProt P08581); test: Inhibitory activity against MET (cMET), TR-FRET kinase assay; assay type: biochemical; settings: TR-FRET enzyme assay
Method: In addition, in order to measure the enzyme activity inhibition for cMET, the evaluation was performed in the same manner as the enzyme activity inhibition measurement experiment for RON.
as §1, with “a 1×kinase” for “a 1× kinase”, “7.4), 0.05% BSA, 0.005%” for “7.4), 0.01%”, “Tween-20, 1” for “Tween-20, 5”, “mM MnCl2, 20” for “mM Na3VO4, 2 mM EGTA, 10”
The cMET protein was diluted to a concentration of 263 nM in a cMET storage buffer (50 mM Tris-HCl (pH 7.5), 150 mM NaCl, 0.05% Brij35, 1 mM DTT, 10% Glycerol), and then diluted again to a concentration of 2 nM in a 1×kinase reaction buffer. As a substrate cocktail, a MET-specific substrate mixed solution (5 uM TK peptide, 10 mM ATP) was prepared at a concentration 2 times the final reaction concentration.
as §2
as §3, with “of 2” for “of 0.4”, “nM cMET” for “nM RON”, “of 90” for “of 30”, “The […]” for “The IC50”

Chain of RON (Q04912 25-1400, species assumed): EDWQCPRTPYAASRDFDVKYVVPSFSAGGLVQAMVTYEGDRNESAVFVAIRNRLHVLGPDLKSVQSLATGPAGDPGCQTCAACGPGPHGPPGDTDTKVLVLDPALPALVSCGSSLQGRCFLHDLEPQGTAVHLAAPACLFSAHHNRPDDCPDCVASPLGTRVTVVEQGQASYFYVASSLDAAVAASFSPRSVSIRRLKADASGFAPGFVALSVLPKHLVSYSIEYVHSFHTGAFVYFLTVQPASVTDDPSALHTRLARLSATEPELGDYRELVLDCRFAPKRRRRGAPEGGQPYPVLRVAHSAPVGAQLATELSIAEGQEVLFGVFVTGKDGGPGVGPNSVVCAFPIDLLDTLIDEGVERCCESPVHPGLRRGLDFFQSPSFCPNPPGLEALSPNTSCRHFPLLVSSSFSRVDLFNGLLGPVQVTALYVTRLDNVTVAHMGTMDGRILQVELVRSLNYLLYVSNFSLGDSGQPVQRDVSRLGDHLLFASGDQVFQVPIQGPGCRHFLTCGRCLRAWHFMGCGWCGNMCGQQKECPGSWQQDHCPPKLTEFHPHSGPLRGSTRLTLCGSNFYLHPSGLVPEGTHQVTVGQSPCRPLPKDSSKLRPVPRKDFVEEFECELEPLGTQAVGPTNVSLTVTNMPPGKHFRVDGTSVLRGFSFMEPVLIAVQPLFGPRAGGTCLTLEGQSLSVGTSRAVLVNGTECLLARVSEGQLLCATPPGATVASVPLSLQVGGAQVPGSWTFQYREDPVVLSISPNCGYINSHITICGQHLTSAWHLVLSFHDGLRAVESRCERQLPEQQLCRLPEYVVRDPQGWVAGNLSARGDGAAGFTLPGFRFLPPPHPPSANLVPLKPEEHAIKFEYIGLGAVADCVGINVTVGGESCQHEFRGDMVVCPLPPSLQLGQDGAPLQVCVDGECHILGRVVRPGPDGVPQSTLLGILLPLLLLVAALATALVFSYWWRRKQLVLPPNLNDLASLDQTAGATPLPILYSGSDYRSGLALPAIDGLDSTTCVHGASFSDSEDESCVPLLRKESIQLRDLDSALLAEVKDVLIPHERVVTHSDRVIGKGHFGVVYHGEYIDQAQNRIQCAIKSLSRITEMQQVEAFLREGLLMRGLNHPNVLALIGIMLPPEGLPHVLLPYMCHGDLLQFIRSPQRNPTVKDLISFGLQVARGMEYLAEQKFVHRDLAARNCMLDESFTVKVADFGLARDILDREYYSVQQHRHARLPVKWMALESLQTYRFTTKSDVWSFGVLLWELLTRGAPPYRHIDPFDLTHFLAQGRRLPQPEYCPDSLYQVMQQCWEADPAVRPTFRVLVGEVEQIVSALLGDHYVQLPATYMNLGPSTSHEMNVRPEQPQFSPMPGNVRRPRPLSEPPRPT
Chain of cMET (P08581 25-1390): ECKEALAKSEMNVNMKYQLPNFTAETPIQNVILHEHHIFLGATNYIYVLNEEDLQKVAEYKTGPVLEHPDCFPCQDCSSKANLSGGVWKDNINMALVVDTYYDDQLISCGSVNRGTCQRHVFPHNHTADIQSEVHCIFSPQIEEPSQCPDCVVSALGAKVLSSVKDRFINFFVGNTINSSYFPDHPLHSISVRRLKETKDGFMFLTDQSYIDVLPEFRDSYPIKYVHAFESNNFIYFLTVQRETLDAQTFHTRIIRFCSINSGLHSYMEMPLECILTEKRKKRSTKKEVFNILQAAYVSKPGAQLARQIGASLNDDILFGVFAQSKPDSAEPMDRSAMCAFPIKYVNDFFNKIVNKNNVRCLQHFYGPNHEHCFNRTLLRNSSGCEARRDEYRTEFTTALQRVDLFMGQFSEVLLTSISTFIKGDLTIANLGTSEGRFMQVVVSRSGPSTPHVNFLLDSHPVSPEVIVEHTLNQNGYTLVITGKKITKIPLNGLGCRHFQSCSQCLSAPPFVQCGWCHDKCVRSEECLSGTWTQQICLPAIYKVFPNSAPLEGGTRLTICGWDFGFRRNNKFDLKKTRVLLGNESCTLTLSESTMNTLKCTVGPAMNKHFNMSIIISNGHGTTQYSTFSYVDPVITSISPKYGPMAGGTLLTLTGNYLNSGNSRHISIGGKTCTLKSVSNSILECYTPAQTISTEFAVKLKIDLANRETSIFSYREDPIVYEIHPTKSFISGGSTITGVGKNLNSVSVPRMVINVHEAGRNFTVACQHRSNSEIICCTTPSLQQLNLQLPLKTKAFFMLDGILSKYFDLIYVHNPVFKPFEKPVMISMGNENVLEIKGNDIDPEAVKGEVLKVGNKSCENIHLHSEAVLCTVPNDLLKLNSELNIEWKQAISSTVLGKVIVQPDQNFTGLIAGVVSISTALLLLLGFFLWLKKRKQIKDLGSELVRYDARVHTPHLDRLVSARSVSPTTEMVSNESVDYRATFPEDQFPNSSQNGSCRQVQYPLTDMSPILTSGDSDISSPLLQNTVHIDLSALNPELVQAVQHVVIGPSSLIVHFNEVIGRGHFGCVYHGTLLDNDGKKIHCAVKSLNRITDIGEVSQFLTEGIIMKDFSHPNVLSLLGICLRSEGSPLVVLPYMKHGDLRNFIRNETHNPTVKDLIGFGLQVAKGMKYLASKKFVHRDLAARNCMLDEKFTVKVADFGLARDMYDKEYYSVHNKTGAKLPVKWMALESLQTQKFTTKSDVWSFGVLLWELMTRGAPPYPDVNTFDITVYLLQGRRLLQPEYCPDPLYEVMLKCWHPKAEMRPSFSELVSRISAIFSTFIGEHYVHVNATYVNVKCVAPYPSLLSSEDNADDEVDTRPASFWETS

IC50 (RON) | IC50 (cMET) | Compound
< 0.05 µM | > 5 µM | Nc1nccc(Oc2ccc(NC(=O)c3cnn(-c4ncccn4)c3C(F)(F)F)cc2F)c1Cl [Example 21, N-(4-((2-amino-3-chloropyridin-4-yl)oxy)-3-fluorophenyl)-1-(pyrimidin-2-yl)-5-(trifluoromethyl)-1H-pyrazole-4-carboxamide]
0.05 to 0.5 µM | > 5 µM | Nc1nccc(Oc2ccc(NC(=O)c3cnn(-c4ccncn4)c3C(F)(F)F)cc2F)c1Cl [Example 22, N-(4-((2-amino-3-chloropyridin-4-yl)oxy)-3-fluorophenyl)-1-(pyrimidin-4-yl)-5-(trifluoromethyl)-1H-pyrazole-4-carboxamide]
0.05 to 0.5 µM | > 5 µM | Cc1ccnc(-n2ncc(C(=O)Nc3ccc(Oc4ccnc(N)c4Cl)c(F)c3)c2C(F)(F)F)n1 [Example 23, N-(4-((2-amino-3-chloropyridin-4-yl)oxy)-3-fluorophenyl)-1-(4-methylpyrimidin-2-yl)-5-(trifluoromethyl)-1 H-pyrazole-4-carboxamide]
0.05 to 0.5 µM | 0.5 to 5 µM | CCOc1cccnc1-n1ncc(C(=O)Nc2ccc(Oc3ccnc(N)c3Cl)c(F)c2)c1C(F)(F)F [Example 24, N-(4-((2-amino-3-chloropyridin-4-yl)oxy)-3-fluorophenyl)-1-(3-ethoxypyridin-2-yl)-5-(trifluoromethyl)-1H-pyrazole-4-carboxamide]
< 0.05 µM | > 5 µM | Nc1nccc(Oc2ccc(NC(=O)c3cnn(-c4cc(F)ccn4)c3C(F)(F)F)cc2F)c1Cl [Example 25, N-(4-((2-amino-3-chloropyridin-4-yl)oxy)-3-fluorophenyl)-1-(4-fluoropyridin-2-yl)-5-(trifluoromethyl)-1H-pyrazole-4-carboxamide]
0.05 to 0.5 µM | > 5 µM | Nc1nccc(Oc2ccc(NC(=O)c3cnn(-c4ncc(F)cn4)c3C(F)(F)F)cc2F)c1Cl [Example 26, N-(4-((2-amino-3-chloropyridin-4-yl)oxy)-3-fluorophenyl)-1-(5-fluoropyrimidin-2-yl)-5-(trifluoromethyl)-1H-pyrazole-4-carboxamide]
0.05 to 0.5 µM | > 5 µM | Nc1nccc(Oc2ccc(NC(=O)c3cnn(-c4ncc(O)cn4)c3C(F)(F)F)cc2F)c1Cl [Example 27, N-(4-((2-amino-3-chloropyridin-4-yl)oxy)-3-fluorophenyl)-1-(5-hydroxypyrimidin-2-yl)-5-(trifluoromethyl)-1H-pyrazole-4-carboxamide]
< 0.05 µM | 0.5 to 5 µM | Nc1nccc(Oc2ccc(NC(=O)c3cnn(-c4ncccc4F)c3C(F)(F)F)cc2F)c1I [Example 28, N-(4-((2-amino-3-iodopyridin-4-yl)oxy)-3-fluorophenyl)-1-(3-fluoropyridin-2-yl)-5-(trifluoromethyl)-1H-pyrazole-4-carboxamide]
< 0.05 µM | > 5 µM | Nc1nccc(Oc2ccc(NC(=O)c3cnn(-c4ncc(F)cc4F)c3C(F)(F)F)cc2F)c1Cl [Example 29, N-(4-((2-amino-3-chloropyridin-4-yl)oxy)-3-fluorophenyl)-1-(3,5-difluoropyridin-2-yl)-5-(trifluoromethyl)-1H-pyrazole-4-carboxamide]
0.5 to 5 µM | > 5 µM | Nc1nccc(Oc2ccc(NC(=O)c3cnn(-c4ccc(F)nn4)c3C(F)(F)F)cc2F)c1Cl [Example 30, N-(4-((2-amino-3-chloropyridin-4-yl)oxy)-3-fluorophenyl)-1-(6-fluoropyridazin-3-yl)-5-(trifluoromethyl)-1H-pyrazole-4-carboxamide]
< 0.05 µM | > 5 µM | Nc1cc(Oc2ccc(NC(=O)c3cnn(-c4ncccc4F)c3C(F)(F)F)cc2F)ccn1 [Example 31, N-(4-((2-aminopyridin-4-yl)oxy)-3-fluorophenyl)-1-(3-fluoropyridin-2-yl)-5-(trifluoromethyl)-1H-pyrazole-4-carboxamide]
< 0.05 µM | 0.5 to 5 µM | Nc1nccc(Oc2ccc(NC(=O)c3cnn(-c4ncccc4F)c3C(F)(F)F)c(F)c2)c1Cl [Example 32, N-(4-((2-amino-3-chloropyridin-4-yl)oxy)-2-fluorophenyl)-1-(3-fluoropyridin-2-yl)-5-(trifluoromethyl)-1H-pyrazole-4-carboxamide]
0.05 to 0.5 µM | > 5 µM | Nc1nccc(Oc2ccc(NC(=O)c3cnn(-c4ncccc4F)c3C(F)(F)F)cc2F)c1NC1CCCCC1 [Example 33, N-(4-((2-amino-3-(cyclohexylamino)pyridin-4-yl)oxy)-3-fluorophenyl)-1-(3-fluoropyridin-2-yl)-5-(trifluoromethyl)-1H-pyrazole-4-carboxamide]
< 0.05 µM | > 5 µM | CC(C)Nc1c(Oc2ccc(NC(=O)c3cnn(-c4ncccc4F)c3C(F)(F)F)cc2F)ccnc1N [Example 34, N-(4-((2-amino-3-(isopropylamino)pyridin-4-yl)oxy)-3-fluorophenyl)-1-(3-fluoropyridin-2-yl)-5-(trifluoromethyl)-1H-pyrazole-4-carboxamide]
< 0.05 µM | > 5 µM | CCc1c(C(=O)Nc2ccc(Oc3ccnc(N)c3Cl)c(F)c2)cnn1-c1ncccc1F [Example 35, N-(4-((2-amino-3-chloropyridin-4-yl)oxy)-3-fluorophenyl)-5-ethyl-1-(3-fluoropyridin-2-yl)-1H-pyrazole-4-carboxamide]
0.05 to 0.5 µM | 0.5 to 5 µM | CCc1c(C(=O)Nc2ccc(Oc3ccnc(N)c3Cl)c(F)c2)cnn1-c1ncccc1Cl [Example 36, N-(4-((2-amino-3-chloropyridin-4-yl)oxy)-3-fluorophenyl)-1-(3-chloropyridin-2-yl)-5-ethyl-1H-pyrazole-4-carboxamide]
< 0.05 µM | 0.5 to 5 µM | CCc1c(C(=O)Nc2ccc(Oc3ccnc(N)c3I)c(F)c2)cnn1-c1ncccc1F [Example 37, N-(4-((2-amino-3-iodopyridin-4-yl)oxy)-3-fluorophenyl)-5-ethyl-1-(3-fluoropyridin-2-yl)-1H-pyrazole-4-carboxamide]
< 0.05 µM | 0.5 to 5 µM | CCc1c(C(=O)Nc2ccc(Oc3ccnc(N)c3I)c(F)c2)cnn1-c1ncccc1Cl [Example 38, N-(4-((2-amino-3-iodopyridin-4-yl)oxy)-3-fluorophenyl)-1-(3-chloropyridin-2-yl)-5-ethyl-1H-pyrazole-4-carboxamide]
0.05 to 0.5 µM | > 5 µM | Cn1cc(-n2ncc(C(=O)Nc3ccc(Oc4ccnc(N)c4Cl)c(F)c3)c2C(F)(F)F)cn1 [Example 39, N-(4-((2-amino-3-chloropyridin-4-yl)oxy)-3-fluorophenyl)-1′-methyl-5-(trifluoromethyl)-1′H-[1,4′-bipyrazole]-4-carboxamide]
0.05 to 0.5 µM | > 5 µM | Cc1csc(-n2ncc(C(=O)Nc3ccc(Oc4ccnc(N)c4Cl)c(F)c3)c2C(F)(F)F)n1 [Example 40, N-(4-((2-amino-3-chloropyridin-4-yl)oxy)-3-fluorophenyl)-1-(4-methylthiazol-2-yl)-5-(trifluoromethyl)-1H-pyrazole-4-carboxamide]
